The values below come from patent publication US7887833B2, “Amphiphilic compounds and vesicles liposomes for organ-specified drug targeting” (Ben-Gurion University of the Negev Research and Development …, priority 2001, dated 2011).

Assay type in all cases: biochemical
For assay [1], the target named is T1, aromatic L-amino acid decarboxylase (AADC) (Rattus norvegicus, UniProt P14173).
T1 construct: rat liver homogenate served as the source for AADC; from tissue; host or cells: rat liver homogenate
T1 sequence (P14173 1-480): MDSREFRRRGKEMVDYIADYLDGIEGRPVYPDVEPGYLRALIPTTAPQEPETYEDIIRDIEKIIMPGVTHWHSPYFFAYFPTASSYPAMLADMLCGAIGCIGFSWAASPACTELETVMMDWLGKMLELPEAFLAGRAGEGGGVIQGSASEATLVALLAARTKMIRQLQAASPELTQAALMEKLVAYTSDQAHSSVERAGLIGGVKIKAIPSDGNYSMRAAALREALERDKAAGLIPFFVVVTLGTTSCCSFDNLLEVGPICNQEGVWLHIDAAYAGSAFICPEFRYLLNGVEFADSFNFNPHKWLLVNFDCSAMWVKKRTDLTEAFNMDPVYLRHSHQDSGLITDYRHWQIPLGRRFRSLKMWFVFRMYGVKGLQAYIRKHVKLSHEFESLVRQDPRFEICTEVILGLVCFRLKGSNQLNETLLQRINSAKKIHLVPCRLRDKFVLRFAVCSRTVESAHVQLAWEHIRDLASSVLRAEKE
Description: Decarboxylation of headgroup by AADC from rat liver homogenate (HPLC, electrochemical detector). An excerpt: Derivative 5 contains an aromatic amino acid moiety as a headgroup. This negatively charged headgroup, at physiological pH, may be a suitable substrate for the enzyme aromatic L-amino acid decarboxylase (AADC). Upon exposure to AADC, the headgroup of Derivative 5 should be converted to an amine thus changing the nature of the headgroup (from a carboxyl to amine) in a way that can result in destabilization of vesicles made from Derivative 5.
To test whether Derivative 5 could serve as a substrate for AADC, rat liver homogenate served as the source for AADC and the following experiment was carried out. A methanol solution (0.005 ml) of Derivative 5 was added to a reaction mixture (0.5 ml final volume) containing potassium phosphate (50 mM, pH=7.0), dithiothreitol (1 mM), EDTA (0.2 mM), pyridoxal 5′-phosphate (0.01 mM), pargylin (0.1 mM), and rat liver homogenate adjusted to 5 mg protein. The final concentration of Derivative 5 was 1 mM. The reaction mixture was incubated at 37° C. for 60 min followed by the addition of 0.05 ml perchloric acid (70%) and neutralized by 4M KOH. The mixture was then centrifuged at 20.000 g for 10 min at 4° C. and 0.1 ml of the supernatant was injected into a C18-HPLC column. The presence of the amine, which was formed during the reaction, was determined by electrochemical detector. […]

The test system of a further assay is cholinesterases (ChE). Description: pH-stat method: hydrolysis of headgroups by cholinesterases of human serum. The note with it: 100 mM solutions diluted 100 times, pH 9.0, human serum 0.1 ml, 15 min. Here is the method: The ability of cholinesterases (ChE) to hydrolyze Derivatives 1 and 2 was assessed using two methods:
(i) The pH-stat method: Hydrolysis of the acetylcholine ester headgroups of Derivative 1, as well as of acetylcholine (ACh), by cholinesterases (ChE), releases acetic acid into the solution. Hydrolysis of Derivative 2 by ChE releases choline and a free fatty acid. In both cases, the release of acid results in pH drop. The hydrolysis rate of these compounds can be determined by measuring the amount of NaOH needed to neutralize the acid generated during hydrolysis. Three solutions, 100 mM concentration each of acetylcholine (ACh) in water and of Derivatives 1 and 2 in methanol were prepared, then diluted 100 times with water (10 ml), and their pH was adjusted to pH 9.0 using 0.1M NaOH. The pH was monitored until it remained stable for 10 min (baseline). At this stage, human serum (0.1 ml) containing ChE, was added and each of the solutions was titrated with 0.05M NaOH in order to maintain pH 9.0. The amount of the NaOH needed to maintain constant pH was measured during 15 min. […] Thus vesicles prepared from Derivative 1 are expected to disrupt, in presence of ChE, faster than vesicles made from Derivative 2.

Assay [2] concerns acetylcholinesterase (ACHE). Description: Competition assay using the Elman's method (acetylthiocholine/DTNB). The note with it: acetylthiocholine 1.5 mM, DTNB 0.5 mM, 3 units AChE, phosphate-buffered saline. As to the method:
(ii) Competition assay using the Elman's method: Hydrolysis of acetylthiocholine (ATC) releases thiocholine, which reduces 5,5′-dithiobis-2-nitrobenzoate (DTNB) giving rise to a yellow coloring of the solution. […] A series of solutions with varying concentrations of Derivatives 1 and 2 in methanol together with acetylthiocholine (1.5 mM), DTNB (0.5 mM), and with 3 units of acetylcholinesterase (ACHE) in phosphate-buffered saline, was prepared. The rate of appearance of yellow color was determined in each of the reaction mixtures. […] Thus, vesicles prepared from Derivative 1 are expected to disrupt faster than vesicles prepared from Derivative 2, when exposed to cholinesterases.

With `CCCCCC(OC(=O)CNc1ccc(CC(N)C(=O)O)cc1)C(O)CC=CCCCCCCCC(=O)NCCNC(=O)CCCCCCCC=CCC(O)C(CCCCC)OC(=O)CNc1ccc(CC(N)C(=O)O)cc1` (stereo not shown) [Derivative 5], the “decarboxylation to the amine (HPLC peak)” value in assay [1] (1 mM, rat liver homogenate 5 mg protein, 37° C., 60 min) is recorded as “decarboxylated”. The “amine peak in presence of benserazide” value in assay [1] (benserazide 5×10^-5 M added to the reaction mixture) is on record as “not detectable”.
Turning to `CCCCCC(OC(=O)C[N+](C)(C)CCOC(C)=O)C(O)CC=CCCCCCCCC(=O)NCCNC(=O)CCCCCCCC=CCC(O)C(CCCCC)OC(=O)C[N+](C)(C)CCOC(C)=O` (stereo not shown) [Derivative 1], in the assay with cholinesterases (ChE), the “hydrolysis rate (NaOH needed to maintain constant pH)” value was “faster hydrolysis”. Moreover, the “competition with acetylthiocholine for the hydrolyzing enzyme (rate of appearance of yellow color)” value in assay [2] is recorded as “higher extent”.
